Source: article PMC10178204, “Peptaibol Analogs Show Potent Antibacterial Activity against Multidrug Resistant Opportunistic Pathogens” (International Journal of Molecular Sciences, 2023)
Converted amounts (≈) assume the structure as drawn. “And” between values parts separate entries of the source, which are not always exact repeats. Identical values can stand only once. Non-standard residues stand in square brackets, D forms with d. Residues, ends and D or L forms follow the SMILES beside them. *: point of attachment. Leu(ol) = CC(C)C[C@H](N)CO; Octanoyl = CCCCCCCC(=O)*; Aib = CC(C)(N)C(=O)O

Key:
[1] = tested on: S. aureus ATCC 43300 (MRSA); settings: MHB, 5 × 10^5 CFU/mL, 18 h, 35 °C, triplicate
[2] = tested on: A. baumannii SI-12 (OXA-23); settings: MHB, 5 × 10^5 CFU/mL, 18 h, 35 °C, triplicate
In short: (§1)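 Peptides came from DMSO stocks of 25 mg/mL. Strains were clinical MDR isolates producing metallo-β-lactamase (P. aeruginosa) or class D carbapenemase (A. baumannii).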

[3] = tested on: P. aeruginosa VA-182/00 (VIM-2); settings: MHB, 5 × 10^5 CFU/mL, 18 h, 35 °C, triplicate
In short: as §1

[4] = tested on: P. aeruginosa 101/1477 (IMP-1); settings: MHB, 5 × 10^5 CFU/mL, 18 h, 35 °C, triplicate
In short: as §1

[5] = tested on: P. aeruginosa 506/99 (VIM-2); settings: MHB, 5 × 10^5 CFU/mL, 18 h, 35 °C, triplicate
In short: as §1

[6] = tested on: A. baumannii SI-648 (OXA-23, OXA-51-like); settings: MHB, 5 × 10^5 CFU/mL, 18 h, 35 °C, triplicate
In short: as §1

[7] = tested on: P. aeruginosa VR-143/97 (VIM-1); settings: MHB, 5 × 10^5 CFU/mL, 18 h, 35 °C, triplicate
In short: as §1

[8] = tested on: A. baumannii SI-310 (OXA-24); settings: colistin-resistant isolate; MHB, 5 × 10^5 CFU/mL, 18 h, 35 °C, triplicate
In short: as §1

[9] = tested on: blood agar plate (Columbia CNA Agar); assay: Hemolysis on blood agar plate; settings: 50 μg spotted on blood agar, 35 ± 2 °C, 24 h
In short: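 Peptides (50 μg, from 25 mg/mL DMSO solution) spotted on Columbia CNA blood agar, incubated at 35 ± 2 °C for 24 h. Hemolysis zone diameter measured visually, averaged over triplicates. Triton X-100 positive, DMSO negative control.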

[10] = tested on: Acinetobacter baumannii ATCC 17978; settings: for MBC Aba / MIC Aba: MHB, 5 × 10^5 CFU/mL, 18 h, 35 °C, triplicate; for MIC against A. baumannii, in molar units: corresponding to 2 and 8 μg/mL
In short: (§2)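 Broth microdilution in Mueller–Hinton broth, run in triplicate, inoculum 5 × 10^5 CFU/mL per CLSI M07-A10; MIC and MBC both determined. Peptides dissolved in DMSO at 25 mg/mL as stock.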

Escherichia coli CCUGT = settings: MHB, 5 × 10^5 CFU/mL, 18 h, 35 °C, triplicate
In short: as §2

[11] = tested on: Klebsiella pneumoniae ATCC 13833; settings: MHB, 5 × 10^5 CFU/mL, 18 h, 35 °C, triplicate
In short: as §2

[12] = tested on: Pseudomonas aeruginosa ATCC 27853; settings: MHB, 5 × 10^5 CFU/mL, 18 h, 35 °C, triplicate
In short: as §2

[13] = tested on: Staphylococcus aureus ATCC 25923; settings: MHB, 5 × 10^5 CFU/mL, 18 h, 35 °C, triplicate
In short: as §2

[14] = tested on: Enterococcus faecalis ATCC 29212; settings: MHB, 5 × 10^5 CFU/mL, 18 h, 35 °C, triplicate
In short: as §2

[15] = tested on: reference Gram-positive and Gram-negative strains; settings: for lowest MIC: lowest value over the eight reference strains
In short: as §2

[16] = tested on: Streptococcus pyogenes ATCC 12344; settings: MHB, 5 × 10^5 CFU/mL, 18 h, 35 °C, triplicate
In short: as §2

[17] = tested on: Bacillus subtilis ATCC 6633; settings: MHB, 5 × 10^5 CFU/mL, 18 h, 35 °C, triplicate
In short: as §2

Compound	MBC S. aureus ATCC 43300 (MRSA) [1] [µg/mL]	MIC S. aureus ATCC 43300 (MRSA) [1] [µg/mL]	MBC A. baumannii SI-12 (OXA-23) [2] [µg/mL]	MIC A. baumannii SI-12 (OXA-23) [2] [µg/mL]	MBC P. aeruginosa VA-182/00 (VIM-2) [3] [µg/mL]	MIC P. aeruginosa VA-182/00 (VIM-2) [3] [µg/mL]	MBC P. aeruginosa 101/1477 (IMP-1) [4] [µg/mL]	MIC P. aeruginosa 101/1477 (IMP-1) [4] [µg/mL]	MBC P. aeruginosa 506/99 (VIM-2) [5] [µg/mL]	MIC P. aeruginosa 506/99 (VIM-2) [5] [µg/mL]	MBC A. baumannii SI-648 (OXA-23, OXA-51-like) [6] [µg/mL]	MIC A. baumannii SI-648 (OXA-23, OXA-51-like) [6]	MBC P. aeruginosa VR-143/97 (VIM-1) [7] [µg/mL]	MIC P. aeruginosa VR-143/97 (VIM-1) [7] [µg/mL]	MBC A. baumannii SI-310 (OXA-24) [8] [µg/mL]	MIC A. baumannii SI-310 (OXA-24) [8]	Hemolytic activity (in words) [9]	MBC Aba [10] [µg/mL]	MIC Aba [10] [µg/mL]	MIC against A. baumannii, in molar units [10] [µM]	further results
CCCCCCCC(=O)NC(C)(C)C(=O)N[C@@H](CCCCN)C(=O)N[C@@H](CC(C)C)C(=O)NC(C)(C)C(=O)N[C@@H](CCCCN)C(=O)N[C@@H](CCCCN)C(=O)N[C@@H](CC(C)C)C(=O)NC(C)(C)C(=O)N[C@@H](CCCCN)C(=O)N[C@H](C(=O)N[C@H](CO)CC(C)C)[C@@H](C)CC [Peptide 7, 1-Oct-Aib-Lys-Leu-Aib-Lys-Lys-Leu-Aib-Lys-Ile-Lol] (Octanoyl-[Aib]KL[Aib]KKL[Aib]KI[Leu(ol)])	8 (≈ 5.92 µM)	4 (≈ 2.96 µM)	4 (≈ 2.96 µM)	2 (≈ 1.48 µM)	8 (≈ 5.92 µM)	8 (≈ 5.92 µM)	8 (≈ 5.92 µM)	8 (≈ 5.92 µM)	8 (≈ 5.92 µM)	8 (≈ 5.92 µM)	4 (≈ 2.96 µM)	2 µg/mL (≈ 1.48 µM)	8 (≈ 5.92 µM)	8 (≈ 5.92 µM)	4 (≈ 2.96 µM)	4 μg/mL and 4/4 μg/mL	non-hemolytic	16 (≈ 11.8 µM)	2 (≈ 1.48 µM)	1.8 to 7.2	MBC Eco (Escherichia coli CCUGT): 16 µg/mL (≈ 11.8 µM); MIC Eco (Escherichia coli CCUGT): 16 µg/mL (≈ 11.8 µM); MBC Kpn [11]: 16 µg/mL (≈ 11.8 µM); MIC Kpn [11]: 16 µg/mL (≈ 11.8 µM); MBC Pae [12]: > 16 µg/mL; MIC Pae [12]: 8 µg/mL (≈ 5.92 µM); MBC Sau [13]: 32 µg/mL (≈ 23.7 µM); MIC Sau [13]: 16 µg/mL (≈ 11.8 µM); MBC Efa [14]: 8 µg/mL (≈ 5.92 µM); MIC Efa [14]: 4 µg/mL (≈ 2.96 µM); lowest MIC [15]: 2 µg/mL; MIC range, all tested bacterial strains ([15]; reference panel): 2 to 16 µg/mL; MBC Spy [16]: 8 µg/mL (≈ 5.92 µM); MIC Spy [16]: 2 µg/mL (≈ 1.48 µM); MBC Bsu [17]: 16 µg/mL (≈ 11.8 µM); MIC Bsu [17]: 2 µg/mL (≈ 1.48 µM)
CCCCCCCC(=O)NC(C)(C)C(=O)NCC(=O)N[C@@H](CC(C)C)C(=O)NC(C)(C)C(=O)N[C@@H](CCCCN)C(=O)N[C@@H](CCCCN)C(=O)N[C@@H](CC(C)C)C(=O)NC(C)(C)C(=O)NCC(=O)N[C@H](C(=O)N[C@H](CO)CC(C)C)[C@@H](C)CC [Peptide 4, 1-Oct-Aib-Gly-Leu-Aib-Lys-Lys-Leu-Aib-Gly-Ile-Lol]	8 (≈ 6.62 µM)	4 (≈ 3.31 µM)	4 (≈ 3.31 µM)	2 (≈ 1.65 µM)	32 (≈ 26.5 µM)	16 (≈ 13.2 µM)	16 (≈ 13.2 µM)	8 (≈ 6.62 µM)	16 (≈ 13.2 µM)	16 (≈ 13.2 µM)	4 (≈ 3.31 µM)	4 μg/mL and 4/4 μg/mL	32 (≈ 26.5 µM)	16 (≈ 13.2 µM)	8 (≈ 6.62 µM)	4 µg/mL (≈ 3.31 µM)	non-hemolytic	2 (≈ 1.65 µM)	2 (≈ 1.65 µM)	1.8 to 7.2	MBC Eco (Escherichia coli CCUGT): > 16 µg/mL; MIC Eco (Escherichia coli CCUGT): 16 µg/mL (≈ 13.2 µM); MBC Kpn [11]: 32 µg/mL (≈ 26.5 µM); MIC Kpn [11]: 16 µg/mL (≈ 13.2 µM); MBC Pae [12]: 16 µg/mL (≈ 13.2 µM); MIC Pae [12]: 8 µg/mL (≈ 6.62 µM); MBC Sau [13]: 16 µg/mL (≈ 13.2 µM); MIC Sau [13]: 16 µg/mL (≈ 13.2 µM); MBC Efa [14]: 8 µg/mL and 4 µg/mL; MIC Efa [14]: 2 µg/mL (≈ 1.65 µM); lowest MIC [15]: 2 µg/mL; MBC Spy [16]: 2 µg/mL (≈ 1.65 µM); MIC Spy [16]: 2 µg/mL (≈ 1.65 µM); MIC Bsu [17]: 2 µg/mL (≈ 1.65 µM)
